In patent US12077503B2, “Substituted cyclic amides and their use as herbicides” (FMC CORPORATION, priority 2015, dated 2024):
Read-outs that look alike come from different tables or passages of the source.

Tests used:
Type in all cases: in vivo
[1] = tested on: pigweed (Amaranthus retroflexus); assay: Test A preemergence; settings: Amaranthus retroflexus, pre-emergence, 240 h; for pest or weed control at 125 g/ha: 125 g ai/ha, 0 to 100 scale where 0 is no effect and 100 is complete control; for pest or weed control at 500 g/ha: 500 g ai/ha
Kochia (Kochia scoparia) = assay: Test A postemergence; settings: Bassia scoparia, post-emergence, 240 h, postemergence; for pest or weed control at 125 g/ha: 125 g ai/ha
In short: (§1)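 In a loam soil and sand blend, planted seeds got a preemergence directed soil spray, and young plants at the one- to two-leaf stage, 2–10 cm high, got a postemergence application; ~10 d greenhouse hold; injury rated visually, 0 = none, 100 = complete control.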

[2] = tested on: giant foxtail (Setaria faberii); assay: Test A postemergence; settings: Setaria faberi, post-emergence, 240 h, postemergence; for pest or weed control at 125 g/ha: 125 g ai/ha
In short: as §1

[3] = tested on: wheat (Triticum aestivum); assay: Test A postemergence; settings: Triticum aestivum, post-emergence, 240 h, postemergence; for plant injury at 125 g/ha: 125 g ai/ha
In short: as §1

[4] = tested on: ryegrass, Italian (Italian ryegrass, Lolium multiflorum); assay: Test A postemergence; settings: Lolium multiflorum, post-emergence, 240 h, postemergence; for pest or weed control at 125 g/ha: 125 g ai/ha
In short: as §1

corn (Zea mays) = assay: Test A postemergence; settings: Zea mays, post-emergence, 240 h, postemergence; for plant injury at 125 g/ha: 125 g ai/ha
In short: as §1

[5] = tested on: ragweed (common ragweed, Ambrosia elatior); assay: Test A postemergence; settings: Ambrosia artemisiifolia, post-emergence, 240 h, postemergence; for pest or weed control at 125 g/ha: 125 g ai/ha
In short: as §1

[6] = tested on: Galium (catchweed bedstraw, Galium aparine); assay: Test A postemergence; settings: Galium, post-emergence, 240 h, 125 g ai/ha, postemergence, visual injury rating after approximately 10 d; read-out: Galium plant response rating (0 to 100 scale, 0 no effect, 100 complete control)
In short: as §1

[7] = tested on: pigweed (Amaranthus retroflexus); assay: Test A postemergence; settings: Amaranthus retroflexus, post-emergence, 240 h, postemergence; for pest or weed control at 125 g/ha: 125 g ai/ha
In short: as §1

[8] = tested on: barnyardgrass (Echinochloa crus-galli); assay: Test A postemergence; settings: Echinochloa crus-galli, post-emergence, 240 h, postemergence; for pest or weed control at 125 g/ha: 125 g ai/ha
In short: as §1

[9] = tested on: sedge, umbrella (small-flower umbrella sedge, Cyperus difformis); assay: Test B flooded paddy test; settings: Cyperus difformis, Flood, 250 g ai/ha, read-out: Sedge, Umbrella plant response rating
In short: (§2)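 Plants at 2-leaf stage flooded to 3 cm above soil, with compounds applied directly to paddy water and that depth maintained. Plants kept in greenhouse 13–15 d. Visual rating versus controls on a 0 (no effect) to 100 (complete control) scale.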

rice (Oryra sativa) = assay: Test B flooded paddy test; settings: Oryza sativa, Flood, 250 g ai/ha, read-out: Rice plant response rating
In short: as §2

[10] = tested on: ducksalad (Heteranthera limosa); assay: Test B flooded paddy test; settings: Heteranthera limosa, Flood, 250 g ai/ha, read-out: Ducksalad plant response rating
In short: as §2

[11] = tested on: barnyardgrass (Echinochloa crus-galli); assay: Test B flooded paddy test; settings: Echinochloa crus-galli, Flood, 250 g ai/ha, read-out: Barnyardgrass plant response rating
In short: as §2

[12] = tested on: blackgrass (Alopecurus myosuroides); assay: Test A postemergence; settings: Alopecurus myosuroides, post-emergence, 240 h, postemergence, read-out: Blackgrass plant response rating
In short: as §1

[13] = preemergence, read-out: Pigweed plant response rating
[14] = Preemergence, visual injury vs untreated controls after approximately 10 d, read-out: Pigweed plant response rating (0 to 100 scale where 0 is no effect and 100 is complete control)
[15] = visual injury rating after approximately 10 d, read-out: Kochia plant response rating (0 to 100 scale, 0 no effect, 100 complete control)
[16] = visual injury rating after approximately 10 d, read-out: Foxtail, Giant plant response rating (0 to 100 scale, 0 no effect, 100 complete control)
[17] = visual injury rating after approximately 10 d, read-out: Wheat plant response rating (0 to 100 scale, 0 no effect, 100 complete control)
[18] = visual injury rating after approximately 10 d, read-out: Ryegrass, Italian plant response rating (0 to 100 scale, 0 no effect, 100 complete control)
[19] = visual injury rating after approximately 10 d, read-out: Corn plant response rating (0 to 100 scale, 0 no effect, 100 complete control)
[20] = visual injury rating after approximately 10 d, read-out: Ragweed plant response rating (0 to 100 scale, 0 no effect, 100 complete control)
[21] = visual injury rating after approximately 10 d, read-out: Pigweed plant response rating (0 to 100 scale, 0 no effect, 100 complete control)
[22] = visual injury rating after approximately 10 d, read-out: Barnyardgrass plant response rating (0 to 100 scale, 0 no effect, 100 complete control)
[23] = scale of 0 to 100 where 0 is no effect and 100 is complete control
[24] = 0 to 100 scale where 0 is no effect and 100 is complete control

For `CCOc1ccc([C@H]2CNC(=O)[C@@H]2C(=O)Nc2ccccc2F)cc1` [Compound 906], the pest or weed control at 125 g/ha [1, 13] was 0%, the pest or weed control at 500 g/ha [1, 14] was 0% and the pest or weed control at 125 g/ha (Kochia (Kochia scoparia); [15]) was 0%. The pest or weed control at 125 g/ha [2, 16] was 0%, the plant injury at 125 g/ha [3, 17] was 0% and the pest or weed control at 125 g/ha [4, 18] was 0%. The plant injury at 125 g/ha (corn (Zea mays); [19]) was 0%, the pest or weed control at 125 g/ha [5, 20] was 0% and the pest or weed control at 125 g/ha [6] was 0%. The pest or weed control at 125 g/ha [7, 21] was 0%, the pest or weed control at 125 g/ha [8, 22] was 0% and the pest or weed control at 250 g/ha [9, 23] was 0%. The pest or weed control at 250 g/ha (rice (Oryra sativa); [23]) was 0%, the pest or weed control at 250 g/ha [10, 23] was 0% and the pest or weed control at 250 g/ha [11, 23] was 0%.

Molecule `Cc1ccc([C@H]2CNC(=O)[C@]2(Br)C(=O)Nc2cccc(F)c2F)cc1F` (racemic) [Compound 1073] has a pest or weed control at 125 g/ha ([1]; preemergence, approx. 10 d, read-out: Pigweed plant response rating) of 100%, a pest or weed control at 500 g/ha ([1]; preemergence, visual injury rating about 10 d after treatment, 0 to 100 scale (0 no effect, 100 complete control), read-out: Pigweed plant response rating) of 100% and a pest or weed control at 125 g/ha (Kochia (Kochia scoparia); visual injury on 0 to 100 scale (0 no effect, 100 complete control), approx. 10 d, read-out: Kochia plant response rating) of 0%. The pest or weed control at 500 g/ha (Kochia (Kochia scoparia); 500 g ai/ha, 0 to 100 scale, 0 is no effect, 100 is complete control, read-out: Kochia plant response rating) was 40%, the pest or weed control at 125 g/ha ([2]; visual injury on 0 to 100 scale (0 no effect, 100 complete control), approx. 10 d, read-out: Foxtail, Giant plant response rating) was 0% and the pest or weed control at 500 g/ha ([2]; 500 g ai/ha, 0 to 100 scale, 0 is no effect, 100 is complete control, read-out: Foxtail, Giant plant response rating) was 40%. The pest or weed control at 125 g/ha ([12]; 125 g ai/ha, visual injury on 0 to 100 scale (0 no effect, 100 complete control), approx. 10 d) was 0%, the pest or weed control at 500 g/ha ([12]; 500 g ai/ha, 0 to 100 scale, 0 is no effect, 100 is complete control) was 30% and the plant injury at 125 g/ha ([3]; visual injury on 0 to 100 scale (0 no effect, 100 complete control), approx. 10 d, read-out: Wheat plant response rating) was 0%. For the same molecule, the plant injury at 500 g/ha ([3]; 500 g ai/ha, 0 to 100 scale, 0 is no effect, 100 is complete control, read-out: Wheat plant response rating) was 30%, the pest or weed control at 125 g/ha ([4]; visual injury on 0 to 100 scale (0 no effect, 100 complete control), approx. 10 d, read-out: Ryegrass, Italian plant response rating) was 0% and the pest or weed control at 500 g/ha ([4]; 500 g ai/ha, 0 to 100 scale, 0 is no effect, 100 is complete control, read-out: Ryegrass, Italian plant response rating) was 40%. It also gave a plant injury at 125 g/ha (corn (Zea mays); visual injury on 0 to 100 scale (0 no effect, 100 complete control), approx. 10 d, read-out: Corn plant response rating) of 20%, a plant injury at 500 g/ha (corn (Zea mays); 500 g ai/ha, 0 to 100 scale, 0 is no effect, 100 is complete control, read-out: Corn plant response rating) of 50% and a pest or weed control at 125 g/ha ([5]; visual injury on 0 to 100 scale (0 no effect, 100 complete control), approx. 10 d, read-out: Ragweed plant response rating) of 30%. For the same molecule, the pest or weed control at 500 g/ha ([5]; 500 g ai/ha, 0 to 100 scale, 0 is no effect, 100 is complete control, read-out: Ragweed plant response rating) was 30%, the pest or weed control at 125 g/ha ([7]; visual injury on 0 to 100 scale (0 no effect, 100 complete control), approx. 10 d, read-out: Pigweed plant response rating) was 0% and the pest or weed control at 500 g/ha ([7]; 500 g ai/ha, 0 to 100 scale, 0 is no effect, 100 is complete control, read-out: Pigweed plant response rating) was 20%. The pest or weed control at 125 g/ha ([8]; visual injury on 0 to 100 scale (0 no effect, 100 complete control), approx. 10 d, read-out: Barnyardgrass plant response rating) was 70%, the pest or weed control at 500 g/ha ([8]; 500 g ai/ha, 0 to 100 scale, 0 is no effect, 100 is complete control, read-out: Barnyardgrass plant response rating) was 90% and the pest or weed control at 250 g/ha [9, 24] was 0%. For the same molecule, the pest or weed control at 250 g/ha (rice (Oryra sativa); [24]) was 15%, the pest or weed control at 250 g/ha [10, 24] was 100% and the pest or weed control at 250 g/ha [11, 24] was 55%.

Work on `O=C1NC[C@H](c2cc(F)c(C(F)(F)F)c(F)c2)[C@H]1C(=O)Nc1ccc(F)cc1F` [Compound 840] yielded a pest or weed control at 125 g/ha [1, 13] of 30%, a pest or weed control at 500 g/ha [1, 14] of 60% and a pest or weed control at 125 g/ha (Kochia (Kochia scoparia); [15]) of 0%. It also gave a pest or weed control at 125 g/ha [2, 16] of 90%, a plant injury at 125 g/ha [3, 17] of 20% and a pest or weed control at 125 g/ha [4, 18] of 0%. The plant injury at 125 g/ha (corn (Zea mays); [19]) was 30%, the pest or weed control at 125 g/ha [5, 20] was 0% and the pest or weed control at 125 g/ha [6] was 50%. For the same molecule, the pest or weed control at 125 g/ha [7, 21] was 0%, the pest or weed control at 125 g/ha [8, 22] was 80% and the pest or weed control at 250 g/ha [9, 23] was 0%. It also gave a pest or weed control at 250 g/ha (rice (Oryra sativa); [23]) of 0%, a pest or weed control at 250 g/ha [10, 23] of 80% and a pest or weed control at 250 g/ha [11, 23] of 0%.
